In this experiment the target is T1, p38α (Homo sapiens, UniProt Q16539).
T1 construct: p38 MAP Kinases are recombinant human full-length proteins with an amino-terminal GST fusion; GST (N); purchased Upstate Biotechnology Inc; host or cells: E. coli
Put plainly: p38 MAP Kinase assay: inhibition of ATF2 phosphorylation, ELISA. The settings on record: for inhibition at 10 µM: substrate ATF2, read-out: [ENZ] P38 ALPHA, PCT INH, ELISA (10 uM;ATF2) (Percent); for IC50: ATF2 phosphorylation, read-out: [ENZ] P38 ALPHA, IC50, ELISA. In kind it is biochemical. The source says:
Compounds of the invention are screened for the ability to inhibit ATF2 phosphorylation by p38 MAP Kinase in vitro. The ability of compounds to inhibit ATF2 phosphorylation in this in vitro assay is correlated with the inhibition of p38 MAP Kinase and TNFα expression in vivo, and is therefore an indicator of potential in vivo therapeutic activity (Raingeaud, J., et al, J. Biol. Chem., 270: 7420-7426, 1995, Brinkman, M. N., et al, J. Biol. Chem. 274: 30882-30886, 1999 and Fuchs, S. Y. et al, J. Biol. Chem. 275: 12560-12564, 2000).
Materials: All kinases and the substrate ATF2 are acquired from Upstate Biotechnology Inc. p38 MAP Kinases are recombinant human full-length proteins with an amino-terminal GST fusion, expressed in and purified from E. coli. ATF2 is a GST fusion protein containing amino acids 19-96 of human ATF2 expressed in E. coli. All proteins are aliquoted and stored at −80° C.
Methods: p38 MAP Kinase assays are performed using an assay buffer containing 25 mM HEPES, pH 7.5, 10 mM MgCl2, 2 mM DTT, 20 mM β-glycerophosphate, 0.1 mM Na3VO4, 40 μM ATP and 1.25 μM of ATF2 and in the absence or presence of 1% human serum albumin, Method I and II, respectively, with 0.4-6 ng of protein depending on the kinase used. Compounds are serially diluted in DMSO and 2 μL of test compound at 25× final concentration is used. The vehicle control receives DMSO only. Test compounds are pre-incubated with 20 μl of enzyme in kinase buffer (25 mM HEPES, pH 7.5, 10 mM MgCl2, 2 mM DTT, 20 mM β-glycerophosphate, 0.1 mM Na3VO4 in the absence or presence of 1% human serum albumin, Method I and II, respectively) at room temperature for 15 minutes. […] The reactions are incubated for 30 minutes at 37° C. and terminated by the addition of 18 μl of 200 mM EDTA. An ELISA method (I or II) is used to measure the phosphorylation of ATF2 at Thr 69. Method I: 96-well high binding plates (Corning 3369) are coated with 50 μl of kinase reaction for 1 hour at 37° C. The coated plates are washed with 200 μl washing buffer (25 mM Tris HCl, pH 8.3, 192 mM glycine, 0.1% SDS and 0.05% Tween-20) three times. The plates are then washed three times with SuperBlock in TBS (Pierce, 37535). After blocking, plates are incubated with 50 μl of rabbit anti-phospho-ATF2 antibody (Cell Signaling, 9221L, 1:500) for 30 minutes at 37° C. Plates are washed three times with washing buffer prior to incubation with 50 μl HRP-conjugated goat anti-rabbit antibody (Cell Signaling, 7074, 1:500) for 30 minutes at 37° C. Plates are then washed three times with washing buffer before incubation with 50 μl of Ultra TMB-ELISA (Pierce, 34028) for 8 minutes at room temperature. Finally, 50 ul of phosphoric acid (1 M) is added to stop reactions and plate absorbance is read at 450 nm on a SpectraMax 250 plate reader. Method II: 96-well high binding plates (Corning 3369) are coated with 400 ng of monoclonal antibody against GST-tag (Cell signaling) in 100 μl containing sodium borate (pH 8.3) for 90 minutes at 37° C. The plates are washed with 200 μl washing buffer (25 mM Tris HCl, pH 7.2, 150 mM NaCl and Tween-20) three times and blocked with 200 μl of 5% nonfat milk for 30 minutes at room temperature. The plates are washed three times with washing buffer, 50 μl of stopped kinase reaction are added to each well and incubated for 80 minutes at 37° C. The plates are washed three times with 200 μl washing buffer, and the plates are incubated with 50 μl of rabbit anti-phospho-ATF2 antibody (Cell Signaling, 9221L, 1:500) for 30 minutes at 37° C. Plates are washed three times with washing buffer prior to incubation with 50 μl HRP-conjugated goat anti-rabbit antibody (Cell Signaling, 7074, 1:500) for 30 minutes at 37° C. Plates are washed three times with washing buffer before incubation with 50 μl of Ultra TMB-ELISA (Pierce, 34028) for 25 minutes at room temperature. Finally, 50 μl of phosphoric acid (1 M) is added to stop reactions and plate absorbance is read at 450 nm on a SpectraMax 250 plate reader. […]
In general terms: An ELISA detects its analyte on a solid surface through an enzyme-linked reagent.

Some results are limits rather than exact numbers.

The IC50 is the midpoint of a concentration-inhibition curve.

T1 sequence (Q16539 whole entry, the tested form may be a part): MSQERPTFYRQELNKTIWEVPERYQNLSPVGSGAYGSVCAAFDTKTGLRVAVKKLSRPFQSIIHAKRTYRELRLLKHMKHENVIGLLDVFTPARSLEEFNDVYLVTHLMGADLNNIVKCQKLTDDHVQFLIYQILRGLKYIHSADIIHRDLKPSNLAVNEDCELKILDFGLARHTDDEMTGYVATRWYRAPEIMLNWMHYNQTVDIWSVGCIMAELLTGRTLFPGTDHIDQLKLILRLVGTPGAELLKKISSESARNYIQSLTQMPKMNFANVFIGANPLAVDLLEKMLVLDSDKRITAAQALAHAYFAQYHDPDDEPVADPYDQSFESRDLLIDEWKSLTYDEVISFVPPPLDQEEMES

As for `CN1CCN(CCOc2ccc(NC(=O)c3ccnc(Cl)c3)c3ccccc23)CC1` [Compound B6], the inhibition at 10 µM worked out at 7.5%.
Turning to `O=C(Nc1ccc(OCCN2CCCCC2)c2ccccc12)c1ccnc(Cl)c1` [Compound B7], the inhibition at 10 µM is 21%.
Turning to `C[C@@H]1CN(CCOc2ccc(NC(=O)c3ccnc(Cl)c3)c3ccccc23)C[C@H](C)O1` [Compound B8], the inhibition at 10 µM is 36.5%.
The same measure, in the same setting: as for `CN1CCN(CCOc2ccc(NC(=O)c3ccc(-n4ccc(C(F)(F)F)n4)cc3)c3ccccc23)CC1` [Compound B9], the figure is 21%.
For `O=C(Nc1ccc(OCCN2CCCCC2)c2ccccc12)c1ccc(-n2ccc(C(F)(F)F)n2)cc1` [Compound B10], the inhibition at 10 µM was determined as 12.5%.
The same measure, in the same setting: next, `O=C(Nc1ccc(OCCN2CCSCC2)c2ccccc12)c1ccc(-n2cccn2)cc1` [Compound B11]: 24%.
On the same count and under the same terms, next, `C[C@@H]1CN(CCOc2ccc(NC(=O)c3ccc(-n4cccn4)cc3)c3ccccc23)C[C@H](C)O1` [Compound B12]: 16.5%.
With `CN1CCN(CCOc2ccc(NC(=O)c3ccc(CN4CCS(=O)(=O)CC4)cc3)c3ccccc23)CC1` [Compound B13], the inhibition at 10 µM came out at 11.5%.
On to `O=C(Nc1ccc(OCCN2CCCCC2)c2ccccc12)c1ccc(CN2CCS(=O)(=O)CC2)cc1` [Compound B14], for which the inhibition at 10 µM turned out to be 6%.
Still for that read-out and setting: next, `CCOC(=O)N1CCN(CCOc2ccc(NC(=O)c3cccc(N4CCOCC4)c3)c3ccccc23)CC1` [Compound B15]: 18%.
Regarding `CCOC(=O)N1CCN(CCOc2ccc(NC(=O)c3ccc(CN4CCS(=O)(=O)CC4)cc3)c3ccccc23)CC1` [Compound B16], the inhibition at 10 µM was determined as 27.5%.
On the same count and under the same terms, next, `O=C(Nc1ccc(OCCN2CCSCC2)c2ccccc12)c1ccc(CN2CCS(=O)(=O)CC2)cc1` [Compound B17]: 30.5%; `O=C(Nc1ccc(OCCN2CCOCC2)c2ccccc12)c1ccc(CN2CCS(=O)(=O)CC2)cc1` [Compound B18]: 10.5%; `CN1CCN(CCOc2ccc(NC(=O)c3ccnc(N4CCOCC4)c3)c3ccccc23)CC1` [Compound B21]: 19.5%.
Turning to `O=C(Nc1ccc(OCCN2CCCCC2)c2ccccc12)c1ccnc(N2CCOCC2)c1` [Compound B22], the inhibition at 10 µM worked out at 12.5%.
As to `C[C@@H]1CN(CCOc2ccc(NC(=O)c3ccnc(N4CCOCC4)c3)c3ccccc23)C[C@H](C)O1` [Compound B23], the inhibition at 10 µM turned out to be 38%.
Take `Cc1cc(C(=O)Nc2ccc(OCCN3CCOCC3)c3ccccc23)cc(Cl)n1` [Compound B64]: the inhibition at 10 µM was 3%.
As to `CN(C)CCN(C)c1cc(F)cc(C(=O)Nc2ccc(OCCN3CCOCC3)c3ccccc23)c1` [Compound B68], the inhibition at 10 µM is 10%.
As for `CC1CCCN(c2cccc(C(=O)Nc3ccc(OCCN4CCOCC4)c4ccccc34)n2)C1` (centres unmarked) [Compound B69], the inhibition at 10 µM is 34%.
Take `O=C(Nc1ccc(OCCN2CCOCC2)c2ccccc12)c1cccc(N2CCC(N3CCCCC3)CC2)n1` [Compound B70]: the inhibition at 10 µM stood at 14%.
As for `O=C(Nc1ccc(OCCN2CCOCC2)c2ccccc12)c1cccc(N2CCC(c3ccccc3)CC2)n1` [Compound B72], the inhibition at 10 µM stood at 0%.
Turning to `O=C(Nc1ccc(OCCN2CCOCC2)c2ccccc12)c1cccc(C(F)(F)F)c1` [Compound B73], the inhibition at 10 µM is 10%.
As to `O=C(Nc1ccc(OCCN2CCOCC2)c2ccccc12)c1cccc2c1C(=O)c1ccccc1-2` [Compound B74], the inhibition at 10 µM was 31%.
For the compound `O=C(Nc1ccc(OCCN2CCOCC2)c2ccccc12)c1cccc2c1Cc1ccccc1-2` [Compound B75], the inhibition at 10 µM was 27% and the IC50 was above 10 µM.
For `CC(C)c1cc(C(=O)Nc2ccc(OCCN3CCOCC3)c3ccccc23)c(O)c(C(C)C)c1` [Compound B76], the inhibition at 10 µM came to 0%.
On the same count and under the same terms, next, `O=C(Nc1ccc(OCCN2CCOCC2)c2ccccc12)c1cc(F)cc(C(F)(F)F)c1` [Compound B77]: 28%.
As for `O=C(Nc1ccc(OCCN2CCOCC2)c2ccccc12)c1cccc(C(=O)c2ccccc2)c1` [Compound B78], the inhibition at 10 µM was 34% and the IC50 was above 10 µM.
With `Cc1cc(C(=O)Nc2ccc(OCCN3CCOCC3)c3ccccc23)nn1C` [Compound B79], the inhibition at 10 µM was determined as 1%.
On the same count and under the same terms, as for `CCn1nc(C)cc1C(=O)Nc1ccc(OCCN2CCOCC2)c2ccccc12` [Compound B80], the figure is 9%; as for `O=C(Nc1ccc(OCCN2CCOCC2)c2ccccc12)C1=CC=CC(C(F)(F)F)C1Cl` (centres unmarked) [Compound B81], 6%.
For `O=C(Nc1ccc(OCCN2CCOCC2)c2ccccc12)c1cc(C(F)(F)F)cc(C(F)(F)F)c1` [Compound B83], the inhibition at 10 µM came to 18%.
In the case of `O=C(Nc1ccc(OCCN2CCOCC2)c2ccccc12)c1cccc(-c2ccc(OC(F)(F)F)cc2)c1` [Compound B87, 4′-Trifluoromethoxy-biphenyl-3-carboxylic acid [4-(2-morpholin-4-yl-ethoxy)-naphthalen-1-yl]-amide], the inhibition at 10 µM was determined as 29% and the IC50 was above 100 µM.
As for `O=C(Nc1ccc(OCCN2CCOCC2)c2ccccc12)c1cccc2ccccc12` [Compound B89], the inhibition at 10 µM amounted to 29%.
Consider `O=C(Nc1ccc(OCCN2CCOCC2)c2ccccc12)c1cccc(-c2cc(C(F)(F)F)cc(C(F)(F)F)c2)c1` [Compound B92], for which the inhibition at 10 µM turned out to be 0%.
For the compound `Cc1ccc(-c2cccc(C(=O)Nc3ccc(OCCN4CCOCC4)c4ccccc34)c2)cc1` [Compound B93], the inhibition at 10 µM was found to be 34% and the IC50 is above 10 µM.
With `O=C(Nc1ccc(OCCN2CCOCC2)c2ccccc12)c1cccc(-c2cccc(Cl)c2)c1` [Compound B94], the inhibition at 10 µM is 71% and the IC50 is 1.14 µM.
Take `O=C(Nc1ccc(OCCN2CCOCC2)c2ccccc12)c1cccc(-c2ccc(Cl)cc2Cl)c1` [Compound B95]: the inhibition at 10 µM came to 58% and the IC50 worked out at 1.75 µM.
In the case of `O=C(Nc1ccc(OCCN2CCOCC2)c2ccccc12)c1cccc(-c2cc(Cl)cc(Cl)c2)c1` [Compound B96], the inhibition at 10 µM worked out at 31% and the IC50 was above 100 µM.
For the compound `O=C(Nc1ccc(OCCN2CCOCC2)c2ccccc12)c1cccc(-c2ccccc2C(F)(F)F)c1` [Compound B97], the inhibition at 10 µM came to 31% and the IC50 was above 10 µM.
On to `O=C(Nc1ccc(OCCN2CCOCC2)c2ccccc12)c1cccc(/C=C/c2ccccc2)c1` [Compound B98], for which the inhibition at 10 µM worked out at 15% and the IC50 is above 10 µM.
With `CCc1ccc(-c2cccc(C(=O)Nc3ccc(OCCN4CCOCC4)c4ccccc34)c2)cc1` [Compound B102], the inhibition at 10 µM amounted to 21% and the IC50 is above 100 µM.
On the same counts, the results for `O=C(Nc1ccc(OCCN2CCOCC2)c2ccccc12)c1cccc(-c2cc(F)cc(F)c2)c1` [Compound B103] are 68% and 1.63 µM.

These data come from patent US7829560B2, “1,4-disubstituted naphthalenes as inhibitors of P38 MAP kinase” (Arqule, Inc., priority 2004, dated 2010).
